Each structure is given as a SMILES string. Values joined by “and” are separate entries in the source; they are usually repeats but may differ in a detail not shown here. Equal entries are not always repeated. “Also recorded” adds a separate entry of the source. Residues, ends and D or L forms follow the SMILES beside them. *: point of attachment. Cbz = O=C(OCc1ccccc1)*

The test system of data set [1] is P23H heterozygous mutant mice. The data set is described as follows: ERG retinal function in P23H mouse model of retinitis pigmentosa. It is filed as in vivo. Particulars: rapamycin once per week from twenty-one days old; course of three months. The procedure: Mice expressing the P23H opsin protein are described by Liu et al., Journal of Cell Science 110, 2589-2597 (1997).
Heterozygous P23H transgenic mice were treated once per week with rapamycin beginning when the mice were twenty-one days old.
(§1) The mice are dark adapted twenty-four hours prior to ERG. A mix of ketamine and xylazine was used to anesthestize mice. Dosage was determined by weight. Mouse eyes were numbed with proparacaine drops and dilated with Ak-dilate. The mouse was then placed on the machine (UTAS-E 2000) a ground electrode was inserted into the hind limb, another electrode was inserted into the neck, and a pair of electrode was used to record the ERG from each eye. After getting a baseline reading, the ERG was measured at 20, 10 and 0 dB. Monthly ERG's were measured and the B-wave amplitude was determined.

The test system of the next data set is P23H opsin. The data set is described as follows: P23H opsin degradation in HEK293 stable cells (immunoblot). Particulars: for loss of P23H opsin: after 12 hours, FTI-277 50 μM, rapamycin 50 nM; for effect of inhibitor on FTI-277 induced P23H opsin degradation: in the presence of FTI-277, 3MA 10 mM, MG132 25 μM; for effect of inhibitor on P23H opsin degradation: inhibitor added at autophagy induction, amino acid depleted cells. It is filed as cell-based, human. The procedure:
Wild-type and P23H opsin were expressed in HEK293 tetracycline-inducible stable cell lines. The cells were grown in Dulbecco's modified Eagle's medium containing high glucose (Invitrogen, San Diego, Calif.) supplemented with 10% heat inactivated fetal bovine serum (Sigma) with antibiotic-antimycotic solution (Invitrogen, San Diego, Calif.), blasticidin (Cayla, Toulouse, France), zeocin (Invitrogen, San Diego, Calif.) at 37 C in the presence of 5.0% CO2. Opsin synthesis in cells was induced by addition of tetracycline (1 μg/ml). Baby hamster kidney (BHK) cell lines stably expressing the wild type and ΔF508 CFTR variant with a C-terminal HA epitope (CFTR-HA) (See Sharma et al., J. Cell Biol. 2004 164(6):923-33). The cells were grown in DMEM/F12 (Invitrogen, San Diego, Calif.) 1:1 ratio with 10% FBS at 37° C. in the presence of 5.0% CO2.
Autophagy was induced in cells by incubating them in amino-acid depleted medium or treating them with rapamycin ([…]), or both. Cells were incubated under autophagy inducing conditions for two, six, or twelve hours. At the indicated time point the cells were lysed in 1% n-dodecyl-β-maltoside (DM) (Anatrace, Maumee, Ohio) in the presence of protease inhibitors (complete protease inhibitor mixture tablets (Roche Molecular Biochemicals, Mannheim, Germany) for 1 hour at 4° C. The cells were centrifuged at 36,000 rpm in a Beckman ultracentrifuge for 30 minutes at 4 C. The lysate was collected and immunoblotting was performed.
(§2) Cell lysates were electrophoresed on 10% SDS polyacrylamide gels and transferred onto Immobilon-NC (Millipore, Billerica, Mass.) nitrocellulose membranes. The membranes were incubated at room temperature for 1 hour with a commercially available blocking buffer (Li-Cor, Lincoln, Nebr.) diluted 1:1 in PBST (PBS with 0.1% triton X-100, pH 7.4), followed by a 1 hour incubation with the indicated primary antibody. The blots were washed three times for 5 minutes each in PBST, and incubated for 1 hour with a true near infrared dye, IRDye800-conjugated secondary antibody (Rockland Immunochemicals Inc., Gilbertsville, Pa.). Finally the membranes were again washed three times with PBST and scanned in an Odyssey infrared scanner (Li-Cor, Lincoln, Nebr.). Quantitations on immunoblots were performed using Licor software. Primary antibodies included antibodies to opsin, HA-tag (Covance Princeton, N.J.), mTOR, phosphorylated mTOR (Upstate Charlottesville, Va.), calnexin, hsp70 (Stressgen, Victoria, BC, CA), Bip (BD PharMingen, San Diego, Calif.) to tubulin (Sigma Chemical, St. Louis, Mo.), 1D4 (University of British Columbia), Akt, phospho-Akt, S6K, phospho-S6K, MAPK and phosphor-MAPK (Cell Signaling Technology, Beverly, Mass.).
Following tetracycline wash off, cells were treated for 0, 2, 6 and 12 hours then lysed in phosphate buffer containing 1% n-dodecyl-β-maltoside (DM) (Anatrace) in the presence of protease inhibitors (complete protease inhibitor mixture tablets; Roche Molecular Biochemicals) for 1 hour at 4° C. As a positive control for autophagy, cells were treated with rapamycin (50 nM), following tetracycline wash off. The lysates were centrifuged at 36,000 rpm in a Beckman ultracentrifuge for 10 min at 4C. The supernatant was collected and immunoblotting was performed. 3-methyladenine (3MA), which blocks autophagy (10 mM) (Sigma Chemical (St. Louis, Mo.)) and MG132 (25 μM) (Sigma Chemical (St. Louis, Mo.)) were also used.
For orientation: A western blot detects proteins with antibodies after separation by electrophoresis.

The conditions of data set [2]: cited from earlier work.
Data set [3] has as its system Abcr heterozygous mutant mice. The data set is described as follows: ERG retinal function in mouse model of macular degeneration. It is filed as in vivo. Conditions: rapamycin 20 mg/kg once per week intraperitoneal from four months old. The procedure: abcr+/− mice are described by Mata et al., Investigative Opthalmology and Visual Science. 2001; 42:1685-1690.
abcr+/− mice were treated with 20 mg/kg of rapamycin once per week beginning when the mice were four months old. The rapamycin was administered by intraperitoneal injection.
as §1

The next data set relates to Rheb. Conditions: Basso et al., 2005; cited from earlier work.
Data set [4] deals with HuH7 hepatoma cells stably expressing GFP-LC3. The data set is described as follows: GFP-LC3 localization in HuH7 hepatoma cells (confocal). It is filed as cell-based. Conditions: FTI-277 treated versus fed cells. The procedure: HuH7 hepatoma cells were stably transfected with pGFP-LC3 (Ogawa et al., Science 307(5710): 727-731, 2005) using a lipid optimization kit, the PerFect lipid (pFx-3), purchased from Invitrogen (San Diego, Calif.). PFX-3 (Invitrogen) according to manufacturer's protocols. Those colonies that grew in the presence of 0.5 mg/ml G418 were then isolated, amplified, and screened for GFP-LC3 expression by fluorescence microscopy and Western blotting.
(§3) Staining with lysotracker (Molecular Probes) was also performed on live cells at 37° C. Confocal imaging was performed using the Leica TCS SP2 AOBS Spectral Confocal Microscope at 63× magnification.

Data set [5] deals with HEK293 cells expressing P23H opsin. The data set can be described thus: electron microscopy morphometric quantification of autophagic vacuoles (AVs). It is filed as cell-based, human. Particulars: FTI-277 for two hours and six hours. The procedure:
P23H opsin-expressing cells were grown on ACLAR sheets in a 24-well plate. […] Following a wash with PBS, cells were fixed with 2% paraformaldehyde, 2% glutaraldehyde in 0.1M sodium cacodylate buffer, pH 7.4 for 30 minutes at 4° C. and processed for CMPase cytochemistry as previously described (31). Morphometric quantification of AVs was done on 20 electron micrographs per condition using Image J software T-test analysis was performed and P value (two-tailed significance) under or equal to 0.05 was considered significant (marked with asterisk).

For the next data set, the system named is S6 kinase. The data set can be described thus: S6 kinase phosphorylation in HEK293 cells (immunoblot). It is filed as cell-based, human. Particulars: within two hours of treatment. The procedure:
as §2
(§4) FTI-277 (Calbiochem) was used at 50 μM. […]

A further data set deals with Akt. The data set is described as follows: Akt phosphorylation in HEK293 cells (immunoblot). It is filed as cell-based, human. Particulars: FTI-277 treatment. The procedure:
as §2, §4

The test system of a further data set is MAPK. The data set is described as follows: MAPK phosphorylation in HEK293 cells (immunoblot). Particulars: FTI-277 treatment. It is filed as cell-based, human. The procedure: as §2, §4
For another data set, the system named is mTOR. The data set can be described thus: mTOR phosphorylation in opsin-expressing HEK293 cells (immunoblot). The class given is cell-based, human.
The test system of data set [6] is Bip, calnexin, calreticulin, Hsp70, Hsp90. The data set can be described thus: UPR/HSR chaperone levels in opsin-expressing HEK293 cells (immunoblot). The class given is cell-based, human. Conditions: FTI-277 treatment, time-dependent. The procedure:
as §2, §4

Data set [7] deals with HEK293 cells expressing P23H opsin. The data set is described as follows: immunocolocalization of autophagosome markers Atg7 and Atg8 with P23H opsin. It is filed as cell-based, human. Particulars: FTI-277 treatment versus untreated cells in complete medium. The procedure: Cells were grown on glass coverslips and fixed in 4% paraformaldehyde. Following quenching with 50 mM NH4Cl, cells were washed with PBS and incubated for 1 hour with the indicated primary antibody at room temperature. Cells were washed five times in PBS and incubated with a secondary antibody (TRITC- and FITC-conjugate) for 1 hour. The cells were washed again and mounted with Vectashield containing DAPI. Primary antibodies included antibodies to LC3, LAMP-1, Atg7 (Dr Dunn), opsin, Atg7^20, Atg8 and HA-tag. The cells were then observed using a Zeiss Axiophot microscope.
as §3

Data set [8] has the same test system. The data set is described as follows: lysotracker staining of lysosomal vacuoles. The class given is cell-based, human. The procedure: as §3

Description for mTOR: Cell lysates were electrophoresed on 10% SDS polyacrylamide gels and transferred onto Immobilon-NC (Millipore, Billerica, Mass.) nitrocellulose membranes. The membranes were incubated at room temperature for 1 hour with a commercially available blocking buffer (Li-Cor, Lincoln, Nebr.) diluted 1:1 in PBST (PBS with 0.1% triton X-100, pH 7.4), followed by a 1 hour incubation with the indicated primary antibody. The blots were washed three times for 5 minutes each in PBST, and incubated for 1 hour with a true near infrared dye, IRDye800-conjugated secondary antibody (Rockland Immunochemicals Inc., Gilbertsville, Pa.). Finally the membranes were again washed three times with PBST and scanned in an Odyssey infrared scanner (Li-Cor, Lincoln, Nebr.). Quantitations on immunoblots were performed using Licor software. […]

As for `CO[C@H]1C[C@@H]2CC[C@@H](C)[C@@](O)(O2)C(=O)C(=O)N2CCCC[C@H]2C(=O)O[C@H]([C@H](C)C[C@@H]2CC[C@@H](O)[C@H](OC)C2)CC(=O)[C@H](C)/C=C(\C)[C@@H](O)[C@@H](OC)C(=O)[C@H](C)C[C@H](C)/C=C/C=C/C=C/1C` [rapamycin], the figures for the “retinal function (ERG)” value in data set [1] and in data set [3] were “rescued retinal function; also recorded: enhances retinal function” and “rescues retinal function; also recorded: enhances retinal function”, respectively. Moreover, the “loss of P23H opsin” value with P23H opsin is listed as 70%. Besides, the “absorption after oral administration” value in [2] was “absorbed rapidly and completely”.

Take `Cn1cnc(N)c2ncnc1-2` [3-MA, 3-methyladenine]: in the data set on P23H opsin, the “effect of inhibitor on FTI-277 induced P23H opsin degradation” value is reported as “prevented degradation of opsin; also recorded: inhibited P23H opsin degradation” and the “effect of inhibitor on P23H opsin degradation” value is recorded as “inhibited P23H degradation”.

As for `CC1=C(/C=C/C(C)=C/C=C/C(C)=C/C=O)C(C)(C)CCC1` [11-cis retinal], in the data set with P23H opsin (11-cis retinal administered at the time autophagy was induced), the “levels of P23H degradation” value was “not altered”. The “P23H protein degradation profile versus wild-type opsin and untreated P23H cells” value in the data set with P23H opsin (11-cis retinal during amino acid depletion) is “intermediate degradation profile”.

With `COC(=O)[C@H](CCSC)NC(=O)c1ccc(NC[C@@H](N)CS)cc1-c1ccccc1` [FTI-277, methyl {N-[2-phenyl-4-N[2(R)-amino-3-mercaptopropylamino]benzoyl]}-methionate], the “prenylation of Rheb” value in the data set with Rheb is listed as “completely block”. Also, the “degradation of P23H opsin” value in the data set on P23H opsin (FTI-277 at 10 μM) is listed as “No effect”; with P23H opsin (FTI-277 at 50 μM), “time-dependent degradation”. Also, the “loss of P23H opsin” value with P23H opsin worked out at 50%. Further, the “degradation of P23H rhodopsin (Western blot)” value in the data set on P23H opsin (fed cells treated with 10 μM or 50 μM FTI277 (FIG. 8)) is on record as “induced the rapid degradation”. Further, in [4], the GFP-LC3 localization entry is listed as “localized to numerous structures consistent with its association with autophagic vacuoles”. For the same compound, the “increase in the fractional volume of AVs compared to untreated cells” value in data set [5] was 4 to 6 fold and 6 fold. The “phosphorylation of S6 kinase” value in the data set with S6 kinase is reported as “dramatically reduced”. Also, the “stimulation of Akt phosphorylation” value with Akt is recorded as “unaffected”. Also, the MAPK phosphorylation result in the data set with MAPK is reported as “slight increase”. Moreover, the “dephosphorylation of mTOR” value with mTOR (FTI-277 in combination with amino acid and serum starvation) is listed as “further enhanced”. Also, the “phosphorylation of mTor” value in the data set on mTOR (FTI-277 treatment, time course of twelve hours) is “effectively inhibited”. In data set [6], the “levels of calnexin, calreticulin, Hsp70 and Hsp90 (UPR and HSR)” value was “did not affect”. Moreover, the “colocalization of Atg7 and Atg8 with P23H opsin” value in data set [7] is recorded as “dramatic increase”. Further, the “lysosomal numbers and size (lysotracker)” value in [8] was “increase”.

For `CC(C)C[C@@H](C=O)NC(=O)[C@H](CC(C)C)NC(=O)[C@H](CC(C)C)NC(=O)OCc1ccccc1` [MG132] (Cbz-Leu-Leu-Leu-aldehyde), in the data set with P23H opsin, the “effect of inhibitor on FTI-277 induced P23H opsin degradation” value was “did not interfere” and the “effect of inhibitor on P23H opsin degradation” value is “no effect”.

The values are drawn from patent publication US20100087474A1, “MATERIALS AND METHODS FOR ENHANCED DEGRADATION OF MUTANT PROTEINS ASSOCIATED WITH HUMAN DISEASE” (UNIVERSITY OF FLORIDA, priority 2005, published 2010).
